Data published in ChEMBL document CHEMBL1201862, “PubChem BioAssay data set” (2004).
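A five-concentration, 48-hour dose response in 96-well plates underlies each endpoint, interpolated linearly between surrounding concentrations. Abbreviation: GI50, concentration required for 50% inhibition of growth.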 Calls of active or inactive are those of the source. Rule as the data show it: active = GI50 up to about 1.1 µM and inactive = higher.

Key:
Assay in all cases: growth of human tumour cells (NCI), 48 h
A498 = tested on: A498
A549 = tested on: A549
BT-549 = tested on: BT-549
CCRF-CEM = tested on: CCRF-CEM
COLO 205 = tested on: COLO 205
EKVX = tested on: EKVX
HOP-92 = tested on: HOP-92
HT-29 = tested on: HT-29
LOX IMVI = tested on: LOX IMVI
MCF7 = tested on: MCF7
MDA-MB-231 = tested on: MDA-MB-231
Malme-3M = tested on: Malme-3M
SF-295 = tested on: SF-295
SF-539 = tested on: SF-539
SNB-19 = tested on: SNB-19
SNB-75 = tested on: SNB-75
SW-620 = tested on: SW-620
UACC-62 = tested on: UACC-62
CAKI-1 = tested on: CAKI-1
OVCAR-4 = tested on: OVCAR-4

SMILES	GI50 (A498)	GI50 (A549)	GI50 (BT-549)	GI50 (CCRF-CEM)	GI50 (COLO 205)	GI50 (EKVX)	GI50 (HOP-92)	GI50 (HT-29)	GI50 (LOX IMVI)	GI50 (MCF7)	GI50 (MDA-MB-231)	GI50 (Malme-3M)	GI50 (SF-295)	GI50 (SF-539)	GI50 (SNB-19)	GI50 (SNB-75)	GI50 (SW-620)	GI50 (UACC-62)	GI50 (CAKI-1)	GI50 (OVCAR-4)
Cc1c(C)c(C)c(CC2(C)CSC2)c(CC2(C)CSC2)c1C	> 100 µM (inactive)	> 100 µM (inactive)	> 100 µM (inactive)	> 100 µM (inactive)	> 100 µM (inactive)	> 100 µM (inactive)	> 100 µM (inactive)	> 100 µM (inactive)	> 100 µM (inactive)	> 100 µM (inactive)	> 100 µM (inactive)	> 100 µM (inactive)	> 100 µM (inactive)	> 100 µM (inactive)	> 100 µM (inactive)	> 100 µM (inactive)	> 100 µM (inactive)	> 100 µM (inactive)		
O=[N+]([O-])c1ccc(NN=C2CN3CCN(C2)c2ccccc23)c([N+](=O)[O-])c1	> 100 µM (inactive)	> 100 µM (inactive)	> 100 µM (inactive)	> 100 µM (inactive)	> 100 µM (inactive)	40.6 µM (inactive)	85.3 µM (inactive)	> 100 µM (inactive)	> 100 µM (inactive)	> 100 µM (inactive)	> 100 µM (inactive)	> 100 µM (inactive)	> 100 µM (inactive)	> 100 µM (inactive)	> 100 µM (inactive)		> 100 µM (inactive)	> 100 µM (inactive)	> 100 µM (inactive)	> 100 µM (inactive)
C=CCSC1=N/C(=C\c2ccc(Cl)cc2)C(=O)N1CC=C	13.6 µM (inactive)	32.7 µM (inactive)	23.5 µM (inactive)	21.4 µM (inactive)	33.3 µM (inactive)	17.1 µM (inactive)	22.1 µM (inactive)	30.5 µM (inactive)	42.9 µM (inactive)	18.9 µM (inactive)	30.2 µM (inactive)		34.8 µM (inactive)	28.8 µM (inactive)	91.4 µM (inactive)		30.3 µM (inactive)	30.2 µM (inactive)	37 µM (inactive)	21.5 µM (inactive)
COC(=O)c1ccc(CCC2=CC(=O)C=CC2=O)cc1	18.7 µM (inactive)	23.5 µM (inactive)	12 µM (inactive)	0.603 µM (active)	7.03 µM (inactive)	16 µM (inactive)	4.43 µM (inactive)	23.1 µM (inactive)	6.4 µM (inactive)	6.59 µM (inactive)	19.4 µM (inactive)		16.6 µM (inactive)	11.5 µM (inactive)	22.4 µM (inactive)	16.3 µM (inactive)	4.52 µM (inactive)	13.7 µM (inactive)	4.11 µM (inactive)	17.7 µM (inactive)
O=C1NC(O)CCN1C1CC(O)C(CO)O1 (centres undefined)	> 100 µM (inactive)	> 100 µM (inactive)	> 100 µM (inactive)	> 100 µM (inactive)	> 100 µM (inactive)	> 100 µM (inactive)	> 100 µM (inactive)		> 100 µM (inactive)	> 100 µM (inactive)	> 100 µM (inactive)	> 100 µM (inactive)	> 100 µM (inactive)	> 100 µM (inactive)	> 100 µM (inactive)		> 100 µM (inactive)	> 100 µM (inactive)	> 100 µM (inactive)	
CCCOC(=O)NC(C)C(=O)NC(CCC(=O)NC(CCCC(N)C(=O)O)C(=O)NC(C)C(=O)O)C(=O)O (centres undefined)	> 100 µM (inactive)	74.6 µM (inactive)	20.7 µM (inactive)	19.2 µM (inactive)	27.2 µM (inactive)	49.3 µM (inactive)	29.5 µM (inactive)	19.5 µM (inactive)	16.6 µM (inactive)	39.2 µM (inactive)	19.3 µM (inactive)		16.6 µM (inactive)	14.8 µM (inactive)	27.7 µM (inactive)		23 µM (inactive)	18.6 µM (inactive)	19.9 µM (inactive)	29.4 µM (inactive)
CNc1ccc(C(=O)CC(O)CCC(C)C2OC(=O)CC(O)CC(=O)CC(O)CC(O)CC(O)CC(O)CC3(O)CC(O)C(C(=O)N4CCOCC4)C(CC(OC4OC(C)C(O)C(N)C4O)\C=C/C=C\C=C/C=C/C=C/C=C\C=C/C2C)O3)cc1 (centres undefined)	0.147 µM (active)	0.275 µM (active)	0.241 µM (active)		0.416 µM (active)		0.281 µM (active)	0.232 µM (active)	0.243 µM (active)	0.285 µM (active)	0.236 µM (active)	0.137 µM (active)	0.446 µM (active)	0.351 µM (active)	0.365 µM (active)	0.409 µM (active)	0.475 µM (active)	0.258 µM (active)	0.227 µM (active)	0.228 µM (active)
C[C@]12[C@@H]3CC[C@H]1[C@@H](OC(=O)Nc1cc([N+](=O)[O-])cc([N+](=O)[O-])c1)C(=O)N2CC3	> 100 µM (inactive)	> 100 µM (inactive)	> 100 µM (inactive)	> 100 µM (inactive)	> 100 µM (inactive)	> 100 µM (inactive)	> 100 µM (inactive)	> 100 µM (inactive)	> 100 µM (inactive)	> 100 µM (inactive)	> 100 µM (inactive)	> 100 µM (inactive)	> 100 µM (inactive)		> 100 µM (inactive)	19.6 µM (inactive)	> 100 µM (inactive)	> 100 µM (inactive)	> 100 µM (inactive)	> 100 µM (inactive)
O=S(=O)(CCn1c(Sc2ccccc2)c(Sc2ccccc2)c2ccccc21)c1ccccc1	> 100 µM (inactive)	> 100 µM (inactive)	> 100 µM (inactive)	> 100 µM (inactive)	> 100 µM (inactive)	> 100 µM (inactive)		> 100 µM (inactive)	> 100 µM (inactive)	> 100 µM (inactive)	> 100 µM (inactive)	> 100 µM (inactive)	> 100 µM (inactive)	> 100 µM (inactive)	> 100 µM (inactive)	> 100 µM (inactive)	> 100 µM (inactive)	> 100 µM (inactive)	55.8 µM (inactive)	> 100 µM (inactive)
Cc1nnc(N)nc1/C=C\c1ccc(Cl)cc1Cl	> 100 µM (inactive)	39.2 µM (inactive)	72.3 µM (inactive)	27.5 µM (inactive)	20.9 µM (inactive)	39.5 µM (inactive)	39.2 µM (inactive)	20.6 µM (inactive)	40.2 µM (inactive)	32.8 µM (inactive)	87.5 µM (inactive)	23.8 µM (inactive)	23.4 µM (inactive)		30.2 µM (inactive)		22 µM (inactive)	30.8 µM (inactive)	> 100 µM (inactive)	34.5 µM (inactive)
c1ccc(CCN2CCCCCC2)nc1	> 100 µM (inactive)	> 100 µM (inactive)	> 100 µM (inactive)	> 100 µM (inactive)	> 100 µM (inactive)	66.8 µM (inactive)	> 100 µM (inactive)	> 100 µM (inactive)	> 100 µM (inactive)	> 100 µM (inactive)	> 100 µM (inactive)	> 100 µM (inactive)	> 100 µM (inactive)		> 100 µM (inactive)		> 100 µM (inactive)	> 100 µM (inactive)	> 100 µM (inactive)	> 100 µM (inactive)
Cc1ccc2c(c1C)-c1c(ccc(C)c1C)C(=O)C2=O	1.87 µM (inactive)	0.887 µM (active)	0.335 µM (active)	0.238 µM (active)	2.02 µM (inactive)	2.13 µM (inactive)	0.374 µM (active)	2.36 µM (inactive)	0.304 µM (active)	0.21 µM (active)	1.62 µM (inactive)	0.598 µM (active)	0.59 µM (active)	0.21 µM (active)	0.881 µM (active)		0.378 µM (active)	0.356 µM (active)	0.662 µM (active)	0.0459 µM (active)
C/C=C(\C)C(=O)OC1CC(OC(C)=O)C2(C(=O)OC)COC3C2C1(C)C1C2(C(=O)OC)OCC1(C3O)C1(O)C3CC(C4(O)C=COC4O3)C1(C)O2 (centres undefined)	> 100 µM (inactive)	> 100 µM (inactive)	> 100 µM (inactive)		> 100 µM (inactive)	> 100 µM (inactive)	> 100 µM (inactive)	> 100 µM (inactive)	> 100 µM (inactive)	> 100 µM (inactive)	> 100 µM (inactive)		> 100 µM (inactive)	> 100 µM (inactive)		> 100 µM (inactive)	> 100 µM (inactive)	> 100 µM (inactive)	> 100 µM (inactive)	> 100 µM (inactive)
OCC1CCCC1O (centres undefined)	> 100 µM (inactive)	> 100 µM (inactive)	> 100 µM (inactive)	> 100 µM (inactive)	> 100 µM (inactive)		> 100 µM (inactive)	> 100 µM (inactive)		> 100 µM (inactive)	> 100 µM (inactive)	> 100 µM (inactive)	> 100 µM (inactive)	> 100 µM (inactive)	> 100 µM (inactive)	> 100 µM (inactive)	> 100 µM (inactive)	> 100 µM (inactive)	> 100 µM (inactive)	> 100 µM (inactive)
CCOC(=O)N1N=C(/C(C)=N/OC)C(C)[S+]1[O-] (centres undefined)	> 100 µM (inactive)	> 100 µM (inactive)	> 100 µM (inactive)	> 100 µM (inactive)	> 100 µM (inactive)	> 100 µM (inactive)	> 100 µM (inactive)	> 100 µM (inactive)		> 100 µM (inactive)	> 100 µM (inactive)	> 100 µM (inactive)	> 100 µM (inactive)	> 100 µM (inactive)	> 100 µM (inactive)	85.3 µM (inactive)	> 100 µM (inactive)	> 100 µM (inactive)	> 100 µM (inactive)	> 100 µM (inactive)
